Measured values: publication PMC3227451, “Structure-based development of novel sirtuin inhibitors” (Aging (Albany NY), 2011)
Read-outs that look alike come from different tables or passages of the source.

Tests used:
[1] = tested on: Sirt1; conditions: cited from earlier work
[2] = tested on: Sirt2; conditions: cited from earlier work
[3] = tested on: Sirt5; conditions: cited from earlier work
[4] = tested on: yeast Sir2; parameters: method as in PMID 14534292; conditions: cited from earlier work
[5] = molecular target: T1, Sirt6 (Homo sapiens, UniProt Q8N6T7); assay: Fluor-de-Lys peptide deacetylation assay, Sirt6; assay type: biochemical
T1 construct: Sirt6 residues 13-308; His-tag with linker comprising a TEV protease cleavage site (N, cleaved yes); made in house; host or cells: E. coli Rosetta2
T1 sequence (Q8N6T7 13-308): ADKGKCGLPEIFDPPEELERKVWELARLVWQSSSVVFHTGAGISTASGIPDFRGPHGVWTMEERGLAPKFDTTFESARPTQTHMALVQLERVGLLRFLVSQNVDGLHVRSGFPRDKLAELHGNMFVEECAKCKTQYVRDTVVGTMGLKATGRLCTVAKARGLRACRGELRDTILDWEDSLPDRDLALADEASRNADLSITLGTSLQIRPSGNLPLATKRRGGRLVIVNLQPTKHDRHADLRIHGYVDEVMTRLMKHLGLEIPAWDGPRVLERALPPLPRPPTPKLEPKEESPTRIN
Summary of the method: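 Fluor-de-Lys kit run with FdL-1 peptide RHK(acetyl-K), 0.1 mM, plus 0.5 mM NAD+. Compounds at 100 μM final, 30 min at 37 °C, then trypsin developer for 45 min at room temperature.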

[6] = molecular target: T2, Sirt1 (Homo sapiens, UniProt Q96EB6); assay: in vitro activity of Sirt1; assay type: biochemical; conditions: concentration of 100 μM
T2 sequence (Q96EB6 1-747): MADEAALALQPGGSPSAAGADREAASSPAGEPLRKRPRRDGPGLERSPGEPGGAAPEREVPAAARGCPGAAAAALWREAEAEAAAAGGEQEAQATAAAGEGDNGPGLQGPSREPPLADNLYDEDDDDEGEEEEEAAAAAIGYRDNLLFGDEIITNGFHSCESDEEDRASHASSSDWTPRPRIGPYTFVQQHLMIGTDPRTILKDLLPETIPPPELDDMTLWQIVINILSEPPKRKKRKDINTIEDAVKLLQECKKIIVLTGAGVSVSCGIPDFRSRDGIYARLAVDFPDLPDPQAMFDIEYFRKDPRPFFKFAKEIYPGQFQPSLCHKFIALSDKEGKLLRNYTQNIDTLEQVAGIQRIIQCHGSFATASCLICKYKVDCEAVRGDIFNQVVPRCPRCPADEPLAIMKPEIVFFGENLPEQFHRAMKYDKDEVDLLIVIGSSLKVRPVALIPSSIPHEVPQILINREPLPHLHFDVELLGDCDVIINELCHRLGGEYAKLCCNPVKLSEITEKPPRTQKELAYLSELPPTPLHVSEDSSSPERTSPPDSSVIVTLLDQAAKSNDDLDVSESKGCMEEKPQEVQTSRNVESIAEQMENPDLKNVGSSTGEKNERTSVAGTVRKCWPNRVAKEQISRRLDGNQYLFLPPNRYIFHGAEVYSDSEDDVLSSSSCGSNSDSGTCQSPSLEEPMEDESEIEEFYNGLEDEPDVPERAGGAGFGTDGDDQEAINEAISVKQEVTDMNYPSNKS

[7] = tested on: HEK cells; assay: Cytotoxicity testing on HEK cells
[8] = molecular target: T3, Sirt2 (Homo sapiens, UniProt Q8IXJ6); assay: Fluor-de-Lys peptide deacetylation assay, Sirt2; assay type: biochemical
T3 sequence (Q8IXJ6 34-356): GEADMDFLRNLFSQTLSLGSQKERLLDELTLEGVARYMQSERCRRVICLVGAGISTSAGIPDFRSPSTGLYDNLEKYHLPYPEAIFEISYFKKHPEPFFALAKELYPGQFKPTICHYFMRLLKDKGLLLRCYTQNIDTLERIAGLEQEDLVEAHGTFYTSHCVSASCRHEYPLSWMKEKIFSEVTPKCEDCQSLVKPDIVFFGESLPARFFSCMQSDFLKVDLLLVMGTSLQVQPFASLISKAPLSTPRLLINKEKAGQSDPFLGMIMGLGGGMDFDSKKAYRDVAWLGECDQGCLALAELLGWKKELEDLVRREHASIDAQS
Summary of the method: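 Full-length human Sirt2 (E. coli-expressed, purified, His-tag removed) incubated 30 min at 37 °C with 0.1 mM FdL-2 peptide (QPK(acetyl-K)), 0.5 mM NAD+ and compound at 100 μM final in kit buffer. Values corrected with compound-only (no Sirtuin) controls; screen in duplicate, dose-response in triplicate.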

[9] = molecular target: T4, Sirt5 (Homo sapiens, UniProt Q9NXA8); assay: Fluor-de-Lys peptide deacetylation assay, Sirt5; assay type: biochemical
T4 construct: Sirt5 residues 34-302; His-tag with linker comprising a TEV protease cleavage site (N); made in house
T4 sequence (Q9NXA8 34-302): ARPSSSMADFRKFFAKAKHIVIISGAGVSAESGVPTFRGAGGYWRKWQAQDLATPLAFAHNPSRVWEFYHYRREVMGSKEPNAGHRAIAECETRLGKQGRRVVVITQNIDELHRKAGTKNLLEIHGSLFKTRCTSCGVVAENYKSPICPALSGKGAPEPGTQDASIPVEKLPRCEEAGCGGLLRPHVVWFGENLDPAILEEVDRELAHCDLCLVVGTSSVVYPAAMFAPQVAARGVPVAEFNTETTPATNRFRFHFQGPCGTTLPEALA
Summary of the method: (§1)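 E. coli-expressed human Sirtuins with 0.5 mM NAD+ and 0.1 mM Fluor-de-Lys peptide: FdL-2 (QPK(acetyl-K)) for Sirt3, FdL-1 (RHK(acetyl-K)) for Sirt5. Compounds at 100 μM final; 30 min at 37 °C, then trypsin developer for 45 min at room temperature.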

[10] = molecular target: T5, Sirt3 (Homo sapiens, UniProt Q9NTG7); assay: Fluor-de-Lys peptide deacetylation assay, Sirt3; assay type: biochemical
T5 construct: Sirt3 residues 114-399; His-tag with linker comprising a TEV protease cleavage site (N); made in house; host or cells: E. coli
T5 sequence (Q9NTG7 114-399): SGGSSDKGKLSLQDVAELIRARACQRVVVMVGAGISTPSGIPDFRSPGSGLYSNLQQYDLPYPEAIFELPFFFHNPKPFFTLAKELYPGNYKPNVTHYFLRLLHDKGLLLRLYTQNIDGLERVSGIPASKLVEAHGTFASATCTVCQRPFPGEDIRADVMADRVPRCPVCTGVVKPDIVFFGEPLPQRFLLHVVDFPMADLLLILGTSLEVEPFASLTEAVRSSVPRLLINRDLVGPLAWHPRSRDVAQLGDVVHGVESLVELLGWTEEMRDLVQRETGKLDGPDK
Summary of the method: as §1

[11] = 100 μM compound, 0.1 mM FdL-1 peptide, 0.5 mM NAD+
[12] = 100 μM compound, 0.1 mM FdL-2 peptide, 0.5 mM NAD+

Structure (SMILES) | Effect on the activity of Sirt6 [5, 11] | Effect on the activity of Sirt2 [8, 12] | Effect on the activity of Sirt5 [9, 11] | Effect on the activity of Sirt3 [10, 12] | further results
CC(NC(=O)c1ccccc1/N=C/c1c(O)ccc2ccccc12)c1ccccc1 (centres unmarked) [sirtinol] |  |  |  |  | weaker potency against Sirt1 than against Sirt2 [1]: ~ 3 fold; IC50 ([2]; in vitro assay, read-out: IC50 against Sirt2): […]
NC(=O)C1CCCc2c1[nH]c1ccc(Cl)cc21 (centres unmarked) [EX-527] |  |  |  |  | effect against Sirt5 [3]: no effect; IC50 [1]: […]; potency against Sirt2 relative to Sirt1 [2]: about two orders of magnitude lower potency
O=C1CCc2c(ccc3ccccc23)O1 [splitomicin] |  |  |  |  | inhibition of yeast Sir2 (potency range) [4]: micromolar inhibitors
C[C@]12CC[C@@H]3c4ccc(O)cc4CC[C@H]3[C@@H]1CCC2OC(=O)CCc1ccccc1 (some centres unmarked) [CSC8, 3-hydroxyestra-1,3,5(10)-trien-17-yl 3-phenylpropanoate] | --- (no such effect) | inhibition (significant inhibitory effects (>25% loss of activity)) | --- (no such effect) | --- (no such effect) | effect on the in vitro activity of Sirt1 [6]: only a weak inhibitory effect; cytotoxicity [7]: very high cytotoxicity; inhibition at 100 µM ([8]; 100 μM compound, read-out: Sirt2 inhibition in the screen): ~80%; IC50 ([8]; dose-response, substrate peptide concentration 100 μM, read-out: IC50 against Sirt2): 4.8 ± 0.5 µM
O=c1c2ccccc2c2ccccc2c(=O)n1-c1cc2c3ccccc3ccc2c2ccccc12 [CSC31, 6-(6-chrysenyl)-5H-dibenzo[c,e]azepine-5,7(6H)-dione] |  |  |  |  | Effect on the activity of Sirt6 [5]: --- (key: inhibition: significant inhibitory effects (>25% loss of activity); ---: no such effect); Effect on the activity of Sirt2 [8]: --- (key: inhibition: significant inhibitory effects (>25% loss of activity); ---: no such effect); Effect on the activity of Sirt5 [9]: --- (key: inhibition: significant inhibitory effects (>25% loss of activity); ---: no such effect); Effect on the activity of Sirt3 [10]: --- (key: inhibition: significant inhibitory effects (>25% loss of activity); ---: no such effect)
N=C(c1ccc2ccccc2c1)c1ccccc1Cc1ccccc1 [CSC22, (2-benzylphenyl)(2-naphthyl)methanimine] | --- (no such effect) | inhibition (significant inhibitory effects (>25% loss of activity)) | --- (no such effect) | --- (no such effect) | 
c1ccc2c(c1)C(=Nc1ccc(N=C3c4ccccc4-c4ccccc43)cc1)c1ccccc1-2 [CSC2, N1,N4-di(9H-fluoren-9-ylidene)-1,4-benzenediamine] | --- (no such effect) | inhibition (significant inhibitory effects (>25% loss of activity)) | --- (no such effect) | --- (no such effect) | 
OC1(C(O)(c2ccc(-c3ccccc3)cc2)c2ccc(-c3ccccc3)cc2)CCCCC1 [CSC39, 1-(di[1,1'-biphenyl]-4-yl(hydroxy)methyl)cyclohexanol] | --- (no such effect) | --- (no such effect) | --- (no such effect) | --- (no such effect) | 
Cc1cc(N2CCOCC2)nc2ccc(Cc3ccc4nc(N5CCOCC5)cc(C)c4c3)cc12 [CSC4, 4-methyl-6-((4-methyl-2-(4-morpholinyl)-6-quinolinyl)methyl)-2-(4-morpholinyl)quinoline] | --- (no such effect) | inhibition (significant inhibitory effects (>25% loss of activity)) | --- (no such effect) | --- (no such effect) | 
O=C(C[n+]1ccc2ccccc2c1)c1ccc2ccc3ccccc3c2c1 [CSC10, 2-(2^5-isoquinolin-2-yl)-1-(3-phenanthryl)ethanone] |  |  |  |  | Effect on the activity of Sirt6 [5]: inhibition (key: inhibition: significant inhibitory effects (>25% loss of activity); ---: no such effect); Effect on the activity of Sirt2 [8]: inhibition (key: inhibition: significant inhibitory effects (>25% loss of activity); ---: no such effect); Effect on the activity of Sirt5 [9]: --- (key: inhibition: significant inhibitory effects (>25% loss of activity); ---: no such effect); Effect on the activity of Sirt3 [10]: inhibition (key: inhibition: significant inhibitory effects (>25% loss of activity); ---: no such effect)
